Source: ChEMBL document CHEMBL4382233, “Discovery of novel arylethenesulfonyl fluorides as potential candidates against methicillin-resistant of Staphylococcus aureus (MRSA) for overcoming multidrug resistance of bacterial infections” (2019)
Converted amounts (≈) assume the structure as drawn.

How the values were obtained:
Format in all cases: functional
Staphylococcus aureus [1] = test: Antibacterial activity against methicillin-resistant Staphylococcus aureus after overnight incubation by micro broth dilution analysis
Staphylococcus aureus [2] = test: Antibacterial activity against methicillin-resistant Staphylococcus aureus assessed as zone of inhibition at 800 ng/mL after 24 hrs by agar disc diffusion method; conditions: read-out: IZ
Staphylococcus aureus [3] = test: Antibacterial activity against methicillin-resistant Staphylococcus aureus assessed as zone of inhibition at 50 ug/mL after 24 hrs by agar disc diffusion method; conditions: read-out: IZ
[4] = system: Staphylococcus epidermidis; test: Antibacterial activity against methicillin-resistant Staphylococcus epidermidis after overnight incubation by micro broth dilution analysis
[5] = system: Staphylococcus haemolyticus; test: Antibacterial activity against methicillin-resistant Staphylococcus haemolyticus after overnight incubation by micro broth dilution analysis
[6] = system: Staphylococcus haemolyticus; test: Antibacterial activity against methicillin-resistant Staphylococcus haemolyticus assessed as zone of inhibition at 50 ug/mL after 24 hrs by agar disc diffusion method; conditions: read-out: IZ
Staphylococcus aureus [7] = test: Antibacterial activity against methicillin-resistant Staphylococcus aureus assessed as zone of inhibition at 400 ng/mL after 24 hrs by agar disc diffusion method; conditions: read-out: IZ
Staphylococcus aureus [8] = test: Antibacterial activity against methicillin-resistant Staphylococcus aureus assessed as zone of inhibition at 200 ng/mL after 24 hrs by agar disc diffusion method; conditions: read-out: IZ
[9] = system: Staphylococcus epidermidis; test: Antibacterial activity against methicillin-resistant Staphylococcus epidermidis assessed as zone of inhibition at 20 ug/mL after 24 hrs by agar disc diffusion method; conditions: read-out: IZ

Row | SMILES | MIC99 (Staphylococcus aureus [1]) | zone of inhibition at 0.8 µg/mL (Staphylococcus aureus [2]) | zone of inhibition at 50 µg/mL (Staphylococcus aureus [3]) | MIC99 [4] | MIC99 [5] | zone of inhibition at 50 µg/mL [6] | zone of inhibition at 0.4 µg/mL (Staphylococcus aureus [7]) | zone of inhibition at 0.2 µg/mL (Staphylococcus aureus [8]) | zone of inhibition at 20 µg/mL [9]
1 | COc1cc(/C=C/C=C/S(=O)(=O)F)cc(OC)c1 | 61.1 µg/mL (≈ 225 µM) | 8.5 mm | 16.1 mm | 57.1 µg/mL (≈ 210 µM) | 56.6 µg/mL (≈ 208 µM) | 4.2 mm | 7.1 mm | 5.2 mm | 4.1 mm
2 | O=S(=O)(F)/C=C/C=C/c1ccc2ccccc2c1 | 58 µg/mL (≈ 221 µM) | – | 3.3 mm | 63 µg/mL (≈ 240 µM) | 51 µg/mL (≈ 195 µM) | 4.5 mm | – | – | 5.4 mm
3 | O=S(=O)(F)/C=C/C=C/c1ccccc1C(F)(F)F | 55.1 µg/mL (≈ 197 µM) | – | 4.1 mm | 52.6 µg/mL (≈ 188 µM) | 55.1 µg/mL (≈ 197 µM) | 4.3 mm | – | – | 4.1 mm
4 | O=S(=O)(F)/C=C/C=C/c1ccc(/C=C/S(=O)(=O)F)cc1 | 66.8 µg/mL (≈ 209 µM) | – | 5.3 mm | 56 µg/mL (≈ 175 µM) | 55 µg/mL (≈ 172 µM) | 3.5 mm | – | – | 4.2 mm
5 | CC(C)(C)c1ccc(/C=C/C=C/S(=O)(=O)F)cc1 | 58.2 µg/mL (≈ 217 µM) | – | 6.3 mm | 62.1 µg/mL (≈ 232 µM) | 65.3 µg/mL (≈ 243 µM) | 4.5 mm | – | – | 5.5 mm
6 | O=S(=O)(F)/C=C/c1ccc2ccccc2c1 | 47 µg/mL (≈ 199 µM) | – | 7.2 mm | 43.1 µg/mL (≈ 183 µM) | 65.5 µg/mL (≈ 277 µM) | 3.5 mm | – | – | 4.4 mm
7 | Cc1ccc(S(=O)(=O)n2ccc3cc(/C=C/S(=O)(=O)F)ccc32)cc1 | 60.6 µg/mL (≈ 160 µM) | – | 4.2 mm | 66 µg/mL (≈ 174 µM) | 61 µg/mL (≈ 161 µM) | 3.5 mm | – | – | 4.3 mm
8 | O=S(=O)(F)/C=C/c1ccc(F)cc1F | 16.1 µg/mL (≈ 72.3 µM) | 4.1 mm | 14.1 mm | 47 µg/mL (≈ 212 µM) | 55.1 µg/mL (≈ 248 µM) | 3.5 mm | 3.5 mm | 3.1 mm | 3.7 mm
9 | O=S(=O)(F)/C=C/c1ccc(F)cc1 | 16.1 µg/mL (≈ 79 µM) | 4.5 mm | 10.1 mm | 61.1 µg/mL (≈ 299 µM) | 57.3 µg/mL (≈ 281 µM) | 4.2 mm | 4.1 mm | 3.5 mm | 5.2 mm
10 | O=S(=O)(F)/C=C/c1ccsc1 | 16.6 µg/mL (≈ 86.4 µM) | 4.5 mm | 8.2 mm | 66.1 µg/mL (≈ 344 µM) | 48 µg/mL (≈ 250 µM) | 4.52 mm | 4.2 mm | 3.2 mm | 8.5 mm
11 | CCOC(=O)c1ccc(/C=C/S(=O)(=O)F)cc1 | 41.1 µg/mL (≈ 159 µM) | – | 6.1 mm | 56.1 µg/mL (≈ 217 µM) | 67.3 µg/mL (≈ 261 µM) | 4.2 mm | – | – | 5.5 mm
12 | O=S(=O)(F)/C=C/C=C/c1ccccc1 | 56.2 µg/mL (≈ 265 µM) | – | 6.2 mm | 52 µg/mL (≈ 245 µM) | 58.1 µg/mL (≈ 274 µM) | 5.2 mm | – | – | 6.2 mm
13 | O=S(=O)(F)/C=C/c1coc2ccccc12 | 45 µg/mL (≈ 199 µM) | – | 6.2 mm | 52.1 µg/mL (≈ 231 µM) | 51 µg/mL (≈ 225 µM) | 3.5 mm | – | – | 6.4 mm
14 | O=S(=O)(F)/C=C/c1cccc2c1sc1ccccc12 | 48.2 µg/mL (≈ 165 µM) | 4.5 mm | 8.1 mm | 55 µg/mL (≈ 188 µM) | 66 µg/mL (≈ 226 µM) | 4.5 mm | 4.4 mm | 3.5 mm | 4.1 mm
15 | N#Cc1cccc(/C=C/C=C/S(=O)(=O)F)c1 | 41.2 µg/mL (≈ 174 µM) | – | 3.5 mm | 50 µg/mL (≈ 211 µM) | 51.2 µg/mL (≈ 216 µM) | 5.1 mm | – | – | 4.5 mm
16 | O=S(=O)(F)/C=C/c1ccccc1O | 0.853 µg/mL (≈ 4.22 µM) | 7.7 mm | 12.1 mm | 58 µg/mL (≈ 287 µM) | 61 µg/mL (≈ 302 µM) | 3.5 mm | 5.2 mm | 3.5 mm | 6.2 mm
17 | O=Cc1ccc(/C=C/S(=O)(=O)F)o1 | 0.845 µg/mL (≈ 4.14 µM) | – | 7.2 mm | 61 µg/mL (≈ 299 µM) | 55.1 µg/mL (≈ 270 µM) | 4.5 mm | – | – | 7.4 mm
18 | O=S(=O)(F)/C=C/c1cccc(/C=C/S(=O)(=O)F)c1 | 44.1 µg/mL (≈ 150 µM) | – | 4.2 mm | 41.2 µg/mL (≈ 140 µM) | 50 µg/mL (≈ 170 µM) | 4.4 mm | – | – | 6.5 mm
19 | O=C(O)c1ccc(/C=C/S(=O)(=O)F)cc1 | 55.3 µg/mL (≈ 240 µM) | – | 7.2 mm | 50.1 µg/mL (≈ 217 µM) | 43.3 µg/mL (≈ 188 µM) | 3.3 mm | – | – | 6.5 mm

Row | SMILES | MIC99 (Staphylococcus aureus [1]) | zone of inhibition at 0.8 µg/mL (Staphylococcus aureus [2]) | zone of inhibition at 50 µg/mL (Staphylococcus aureus [3]) | MIC99 [4] | MIC99 [5] | zone of inhibition at 50 µg/mL [6] | zone of inhibition at 0.4 µg/mL (Staphylococcus aureus [7]) | zone of inhibition at 0.2 µg/mL (Staphylococcus aureus [8]) | zone of inhibition at 20 µg/mL [9]
20 | O=S(=O)(F)/C=C/c1cccc(-c2ccccc2)c1 | 40.1 µg/mL (≈ 153 µM) | – | 7.8 mm | 44.1 µg/mL (≈ 168 µM) | 40.2 µg/mL (≈ 153 µM) | 5.2 mm | – | – | 5.5 mm
21 | O=S(=O)(F)/C=C/c1cnn(-c2ccccc2)c1 | 51.2 µg/mL (≈ 203 µM) | – | 3.1 mm | 52.3 µg/mL (≈ 207 µM) | 51.1 µg/mL (≈ 203 µM) | 3.5 mm | – | – | 4.3 mm
22 | Cc1ccc(S(=O)(=O)n2cc(/C=C/S(=O)(=O)F)c3ccccc32)cc1 | 47.1 µg/mL (≈ 124 µM) | – | 5.1 mm | 51.2 µg/mL (≈ 135 µM) | 58 µg/mL (≈ 153 µM) | 4.2 mm | – | – | 4.1 mm
23 | O=S(=O)(F)/C=C/C=C/c1ccc(F)c(F)c1 | 50.1 µg/mL (≈ 202 µM) | – | 6.1 mm | 51.6 µg/mL (≈ 208 µM) | 55.1 µg/mL (≈ 222 µM) | 4.3 mm | – | – | 5.5 mm
24 | O=Cc1ccc(/C=C/S(=O)(=O)F)cc1 | 45.6 µg/mL (≈ 213 µM) | – | 6 mm | 48.2 µg/mL (≈ 225 µM) | 60.1 µg/mL (≈ 281 µM) | 5.2 mm | – | – | 4.3 mm
25 | O=Cc1ccccc1/C=C/S(=O)(=O)F | 47.2 µg/mL (≈ 220 µM) | – | 6.1 mm | 52.1 µg/mL (≈ 243 µM) | 44.1 µg/mL (≈ 206 µM) | 4.2 mm | – | – | 4.3 mm
26 | COc1ccc(Cl)cc1/C=C/S(=O)(=O)F | 51.1 µg/mL (≈ 204 µM) | – | 5.1 mm | 40.4 µg/mL (≈ 161 µM) | 47 µg/mL (≈ 188 µM) | 5.2 mm | – | – | 5.2 mm
27 | CCOC(=O)c1cccc(/C=C/S(=O)(=O)F)c1 | 40.6 µg/mL (≈ 157 µM) | – | 4.2 mm | 53 µg/mL (≈ 205 µM) | 50.2 µg/mL (≈ 194 µM) | 4.3 mm | – | – | 4.2 mm
28 | Cc1ccc(/C=C/C=C/S(=O)(=O)F)cc1 | 60.6 µg/mL (≈ 268 µM) | – | 4.1 mm | 57 µg/mL (≈ 252 µM) | 51 µg/mL (≈ 225 µM) | 4.3 mm | – | – | 4.1 mm
29 | O=S(=O)(F)/C=C/C=C/c1ccc(Br)cc1 | 51.1 µg/mL (≈ 176 µM) | – | 4.5 mm | 57 µg/mL (≈ 196 µM) | 70 µg/mL (≈ 241 µM) | 4.5 mm | – | – | 5.4 mm
30 | Cc1ccc(S(=O)(=O)n2c3ccccc3c3cc(/C=C/S(=O)(=O)F)ccc32)cc1 | 48 µg/mL (≈ 112 µM) | – | 4.3 mm | 50.1 µg/mL (≈ 117 µM) | 58 µg/mL (≈ 135 µM) | 3.3 mm | – | – | 3.5 mm
31 | O=S(=O)(F)/C=C/c1ccc(-c2ccccc2)cc1 | 53.2 µg/mL (≈ 203 µM) | – | 4.3 mm | 65.1 µg/mL (≈ 248 µM) | 56.1 µg/mL (≈ 214 µM) | 3.5 mm | – | – | 5.1 mm
32 | O=S(=O)(F)/C=C/C=C/c1ccc(C(F)(F)F)cc1 | 59.1 µg/mL (≈ 211 µM) | – | 5.1 mm | 55.2 µg/mL (≈ 197 µM) | 67 µg/mL (≈ 239 µM) | 4.5 mm | – | – | 6.5 mm
33 | O=S(=O)(F)/C=C/c1cccs1 | 52 µg/mL (≈ 271 µM) | – | 5.2 mm | 50.1 µg/mL (≈ 260 µM) | 50.6 µg/mL (≈ 263 µM) | 4.1 mm | – | – | 4.5 mm
34 | O=S(=O)(F)/C=C/c1ccc(I)cc1 | 48.2 µg/mL (≈ 154 µM) | – | 5.2 mm | 50.6 µg/mL (≈ 162 µM) | 47.6 µg/mL (≈ 153 µM) | 4.4 mm | – | – | 5.2 mm
35 | O=S(=O)(F)/C=C/c1cccc2c1oc1ccccc12 | 17 µg/mL (≈ 61.6 µM) | – | 6.3 mm | 67.5 µg/mL (≈ 244 µM) | 47 µg/mL (≈ 170 µM) | 3.3 mm | – | – | 3.5 mm
36 | COc1ccc(/C=C/S(=O)(=O)F)cc1 | 48.1 µg/mL (≈ 222 µM) | – | 52 mm | 51.3 µg/mL (≈ 237 µM) | 68.2 µg/mL (≈ 315 µM) | 6.3 mm | – | – | 60.4 mm
37 | O=S(=O)(F)/C=C/c1ccc(Oc2ccccc2)cc1 | 51.2 µg/mL (≈ 184 µM) | – | 4.4 mm | 44.2 µg/mL (≈ 159 µM) | 61.1 µg/mL (≈ 220 µM) | 4.1 mm | – | – | 6.4 mm
38 | CCc1ccc(/C=C/S(=O)(=O)F)cc1 | 45.1 µg/mL (≈ 211 µM) | – | 5.1 mm | 56.2 µg/mL (≈ 262 µM) | 60 µg/mL (≈ 280 µM) | 3.5 mm | – | – | 6.1 mm
